Non-standard residues stand in square brackets, D forms with d. pGlu = O=C1CC[C@@H](C(=O)O)N1
Assays:
Format in all cases: cell-based, human
whole blood [1] = assay: Whole blood IFN-γ release to peptide pools and individual peptides, MAGPIX multiplex bead assay (Example 3); settings: 10 uM
whole blood [2] = assay: Whole blood IP-10 release to peptide pools and individual peptides, MAGPIX multiplex bead assay (Example 3); settings: Table 10C, 10 uM
whole blood [3] = assay: Whole blood IL-2 release to peptide pools and individual peptides, MAGPIX multiplex bead assay (Example 3); settings: 10 uM
[4] = Subject 1 (HLA-DQ 2.5, 8), day 0 of oral challenge
[5] = Subject 1 (HLA-DQ 2.5, 8), day 6 of oral challenge
[6] = Subject 2 (HLA-DQ 2.5, 8), day 0 of oral challenge
[7] = Subject 2 (HLA-DQ 2.5, 8), day 6 of oral challenge
[8] = Subject 6 (HLA-DQ 2.5), day 0 of oral challenge
[9] = Subject 6 (HLA-DQ 2.5), day 6 of oral challenge
[10] = Subject 7 (HLA-DQ 2.5, 8), day 0 of oral challenge
[11] = Subject 7 (HLA-DQ 2.5, 8), day 6 of oral challenge
[12] = Subject 1, day 0 since commencing oral challenge
[13] = Subject 1, day 6 since commencing oral challenge
[14] = Subject 2, day 0 since commencing oral challenge
[15] = Subject 2, day 6 since commencing oral challenge
[16] = Subject 6, day 0 since commencing oral challenge
[17] = Subject 6, day 6 since commencing oral challenge
[18] = Subject 7, day 0 since commencing oral challenge
[19] = Subject 7, day 6 since commencing oral challenge

(pE)PEQPIPEQPQPYPQQ-NH2 ([pGlu]PEQPIPEQPQPYPQQ-NH2; SMILES CC[C@H](C)[C@H](NC(=O)[C@@H]1CCCN1C(=O)[C@H](CCC(N)=O)NC(=O)[C@H](CCC(=O)O)NC(=O)[C@@H]1CCCN1C(=O)[C@@H]1CCC(=O)N1)C(=O)N1CCC[C@H]1C(=O)N[C@@H](CCC(=O)O)C(=O)N[C@@H](CCC(N)=O)C(=O)N1CCC[C@H]1C(=O)N[C@@H](CCC(N)=O)C(=O)N1CCC[C@H]1C(=O)N[C@@H](Cc1ccc(O)cc1)C(=O)N1CCC[C@H]1C(=O)N[C@@H](CCC(N)=O)C(=O)N[C@@H](CCC(N)=O)C(N)=O)
Whole blood IFNg release, Concentration (whole blood [1]; [4]): 42 pg/mL | Whole blood IFNg release, Fold-change over medium only (whole blood [1]; [4]): 0.76 | Whole blood IFNg release, Concentration (whole blood [1]; [5]): 72 pg/mL | Whole blood IFNg release, Fold-change over medium only (whole blood [1]; [5]): 1.09 | Whole blood IFNg release, Concentration (whole blood [1]; [6]): 3.3 pg/mL | Whole blood IFNg release, Fold-change over medium only (whole blood [1]; [6]): 0.85 | Whole blood IFNg release, Concentration (whole blood [1]; [7]): 8.6 pg/mL | Whole blood IFNg release, Fold-change over medium only (whole blood [1]; [7]): 1.77 | Whole blood IFNg release, Concentration (whole blood [1]; [8]): 96 pg/mL | Whole blood IFNg release, Fold-change over medium only (whole blood [1]; [8]): 0.99 | Whole blood IFNg release, Concentration (whole blood [1]; [9]): 278 pg/mL | Whole blood IFNg release, Fold-change over medium only (whole blood [1]; [9]): 2.84 | Whole blood IFNg release, Concentration (whole blood [1]; [10]): 170 pg/mL | Whole blood IFNg release, Fold-change over medium only (whole blood [1]; [10]): 0.71 | Whole blood IFNg release, Concentration (whole blood [1]; [11]): 102 pg/mL | Whole blood IFNg release, Fold-change over medium only (whole blood [1]; [11]): 0.68 | Whole blood IP-10 release, Concentration (whole blood [2]; [12]): 235 pg/mL | Whole blood IP-10 release, Fold-change over medium only (whole blood [2]; [12]): 0.89 | Whole blood IP-10 release, Concentration (whole blood [2]; [13]): 325 pg/mL | Whole blood IP-10 release, Fold-change over medium only (whole blood [2]; [13]): 0.97 | Whole blood IP-10 release, Concentration (whole blood [2]; [14]): 336 pg/mL | Whole blood IP-10 release, Fold-change over medium only (whole blood [2]; [14]): 1.26 | Whole blood IP-10 release, Concentration (whole blood [2]; [15]): 1269 pg/mL | Whole blood IP-10 release, Fold-change over medium only (whole blood [2]; [15]): 4.06 | Whole blood IP-10 release, Concentration (whole blood [2]; [16]): 3409 pg/mL | Whole blood IP-10 release, Fold-change over medium only (whole blood [2]; [16]): 12.30 | Whole blood IP-10 release, Concentration (whole blood [2]; [17]): 10000 pg/mL | Whole blood IP-10 release, Fold-change over medium only (whole blood [2]; [17]): 49.76 | Whole blood IP-10 release, Concentration (whole blood [2]; [18]): 713 pg/mL | Whole blood IP-10 release, Fold-change over medium only (whole blood [2]; [18]): 0.96 | Whole blood IP-10 release, Concentration (whole blood [2]; [19]): 2549 pg/mL | Whole blood IP-10 release, Fold-change over medium only (whole blood [2]; [19]): 2.86 | Whole blood IL-2 release, Concentration (whole blood [3]; [4]): 3.2 pg/mL | Whole blood IL-2 release, Fold-change over medium only (whole blood [3]; [4]): 1.00 | Whole blood IL-2 release, Concentration (whole blood [3]; [5]): 3.2 pg/mL | Whole blood IL-2 release, Fold-change over medium only (whole blood [3]; [5]): 1.00 | Whole blood IL-2 release, Concentration (whole blood [3]; [6]): 3.2 pg/mL | Whole blood IL-2 release, Fold-change over medium only (whole blood [3]; [6]): 1.00 | Whole blood IL-2 release, Concentration (whole blood [3]; [7]): 22.4 pg/mL | Whole blood IL-2 release, Fold-change over medium only (whole blood [3]; [7]): 7.00 | Whole blood IL-2 release, Concentration (whole blood [3]; [8]): 23.3 pg/mL | Whole blood IL-2 release, Fold-change over medium only (whole blood [3]; [8]): 4.71 | Whole blood IL-2 release, Concentration (whole blood [3]; [9]): 134.3 pg/mL | Whole blood IL-2 release, Fold-change over medium only (whole blood [3]; [9]): 31.67 | Whole blood IL-2 release, Concentration (whole blood [3]; [10]): 106.1 pg/mL | Whole blood IL-2 release, Fold-change over medium only (whole blood [3]; [10]): 1.69 | Whole blood IL-2 release, Concentration (whole blood [3]; [11]): 27.8 pg/mL | Whole blood IL-2 release, Fold-change over medium only (whole blood [3]; [11]): 0.66

(pE)LQPFPQPELPYPQPQ-NH2 ([pGlu]LQPFPQPELPYPQPQ-NH2; SMILES CC(C)C[C@H](NC(=O)[C@@H]1CCC(=O)N1)C(=O)N[C@@H](CCC(N)=O)C(=O)N1CCC[C@H]1C(=O)N[C@@H](Cc1ccccc1)C(=O)N1CCC[C@H]1C(=O)N[C@@H](CCC(N)=O)C(=O)N1CCC[C@H]1C(=O)N[C@@H](CCC(=O)O)C(=O)N[C@@H](CC(C)C)C(=O)N1CCC[C@H]1C(=O)N[C@@H](Cc1ccc(O)cc1)C(=O)N1CCC[C@H]1C(=O)N[C@@H](CCC(N)=O)C(=O)N1CCC[C@H]1C(=O)N[C@@H](CCC(N)=O)C(N)=O)
Whole blood IFNg release, Concentration (whole blood [1]; [4]): 39 pg/mL | Whole blood IFNg release, Fold-change over medium only (whole blood [1]; [4]): 0.71 | Whole blood IFNg release, Concentration (whole blood [1]; [5]): 55 pg/mL | Whole blood IFNg release, Fold-change over medium only (whole blood [1]; [5]): 0.84 | Whole blood IFNg release, Concentration (whole blood [1]; [6]): 4.1 pg/mL | Whole blood IFNg release, Fold-change over medium only (whole blood [1]; [6]): 1.06 | Whole blood IFNg release, Concentration (whole blood [1]; [7]): 13.9 pg/mL | Whole blood IFNg release, Fold-change over medium only (whole blood [1]; [7]): 2.85 | Whole blood IFNg release, Concentration (whole blood [1]; [8]): 102 pg/mL | Whole blood IFNg release, Fold-change over medium only (whole blood [1]; [8]): 1.05 | Whole blood IFNg release, Concentration (whole blood [1]; [9]): 200 pg/mL | Whole blood IFNg release, Fold-change over medium only (whole blood [1]; [9]): 2.03 | Whole blood IFNg release, Concentration (whole blood [1]; [10]): 407 pg/mL | Whole blood IFNg release, Fold-change over medium only (whole blood [1]; [10]): 1.71 | Whole blood IFNg release, Concentration (whole blood [1]; [11]): 194 pg/mL | Whole blood IFNg release, Fold-change over medium only (whole blood [1]; [11]): 1.29 | Whole blood IP-10 release, Concentration (whole blood [2]; [12]): 201 pg/mL | Whole blood IP-10 release, Fold-change over medium only (whole blood [2]; [12]): 0.76 | Whole blood IP-10 release, Concentration (whole blood [2]; [13]): 384 pg/mL | Whole blood IP-10 release, Fold-change over medium only (whole blood [2]; [13]): 1.15 | Whole blood IP-10 release, Concentration (whole blood [2]; [14]): 320 pg/mL | Whole blood IP-10 release, Fold-change over medium only (whole blood [2]; [14]): 1.20 | Whole blood IP-10 release, Concentration (whole blood [2]; [15]): 1844 pg/mL | Whole blood IP-10 release, Fold-change over medium only (whole blood [2]; [15]): 5.90 | Whole blood IP-10 release, Concentration (whole blood [2]; [16]): 1616 pg/mL | Whole blood IP-10 release, Fold-change over medium only (whole blood [2]; [16]): 5.83 | Whole blood IP-10 release, Concentration (whole blood [2]; [17]): 10000 pg/mL | Whole blood IP-10 release, Fold-change over medium only (whole blood [2]; [17]): 49.76 | Whole blood IP-10 release, Concentration (whole blood [2]; [18]): 977 pg/mL | Whole blood IP-10 release, Fold-change over medium only (whole blood [2]; [18]): 1.32 | Whole blood IP-10 release, Concentration (whole blood [2]; [19]): 3293 pg/mL | Whole blood IP-10 release, Fold-change over medium only (whole blood [2]; [19]): 3.69 | Whole blood IL-2 release, Concentration (whole blood [3]; [4]): 3.2 pg/mL | Whole blood IL-2 release, Fold-change over medium only (whole blood [3]; [4]): 1.00 | Whole blood IL-2 release, Concentration (whole blood [3]; [5]): 3.2 pg/mL | Whole blood IL-2 release, Fold-change over medium only (whole blood [3]; [5]): 1.00 | Whole blood IL-2 release, Concentration (whole blood [3]; [6]): 3.2 pg/mL | Whole blood IL-2 release, Fold-change over medium only (whole blood [3]; [6]): 1.00 | Whole blood IL-2 release, Concentration (whole blood [3]; [7]): 12.2 pg/mL | Whole blood IL-2 release, Fold-change over medium only (whole blood [3]; [7]): 3.82 | Whole blood IL-2 release, Concentration (whole blood [3]; [8]): 12.5 pg/mL | Whole blood IL-2 release, Fold-change over medium only (whole blood [3]; [8]): 2.52 | Whole blood IL-2 release, Concentration (whole blood [3]; [9]): 88.5 pg/mL | Whole blood IL-2 release, Fold-change over medium only (whole blood [3]; [9]): 20.88 | Whole blood IL-2 release, Concentration (whole blood [3]; [10]): 144.4 pg/mL | Whole blood IL-2 release, Fold-change over medium only (whole blood [3]; [10]): 2.30 | Whole blood IL-2 release, Concentration (whole blood [3]; [11]): 71.2 pg/mL | Whole blood IL-2 release, Fold-change over medium only (whole blood [3]; [11]): 1.69

— patent US20170045529A1, “METHODS OF MEASURING ANTIGEN-SPECIFIC T CELLS” (ImmusanT, Inc., priority 2014, published 2017)
